Experimental data taken from article PMC3288053 (PLoS ONE, 2012).
Where two headings read alike, the source gives them in different places.

How the values were obtained:
CHO-K1/GLUT4 cells = experiment: Quantification of GLUT4 translocation ratio (IN Cell Analyzer 1000); type: cell-based; conditions: for EC50: serum-starved cells, read-out: EC50, membrane GLUT4 (GLUT4 translocation)
Protocol: CHO-K1 cells are transfected with pEGFPN1-GLUT4-myc plasmid using Lipofectamine 2000, and subsequently screened with G418 (800 µg/ml). The CHO-K1/GLUT4 stable cell line is obtained by picking up clones.
CHO-K1/GLUT4 cells are seeded into 96-well plate. After cells reached 100% confluence, F12 medium is changed to 3T3-L1 medium and incubated for 2 days. 8-hour serum starvation later, cells are stimulated with insulin for 5 minutes, fixed with 3.7% formaldehyde for 15 minutes, and labeled with anti-myc monoclonal antibody and secondary antibody (Alexa Fluor 647 conjuncted anti-mouse antibody). Fluorescence pictures were obtained by IN Cell Analyzer 1000 Instrument (GE Healthcare) with the same exposure time. The basic unit comprises several core components including a Nikon microscope and a high-resolution CCD camera. Membrane-located GLUT4 is represented by the intensity of red fluorescence (Alex fluor 647) and normalized by the intensity of green fluorescence (GLUT4-EGFP), which is assigned to the total GLUT4 [46].

PTPα = target: T1, PTPα (Homo sapiens, UniProt P18433); experiment: PTP enzyme inhibition assay (pNPP substrate); type: biochemical; conditions: PTPs 0.3 µM, pNPP 5 mM, 25°C; NI: No inhibition at 100 µM; read-out: IC50 PTPα
T1 construct: pGEX2T-PTPα182–803; GST (N); made in house; host or cells: E. coli BL21 (DE3)
Protocol: (§1) The enzymatic activities of the recombinant PTPs are measured at 25°C using pNPP as substrate. The initial velocities of enzymatic reactions are determined by continuously measuring the absorbance at 405 nm every 15 s using a microplate spectrophotometer (Bio-Rad). […] To determine the inhibition type, each concentration of Rut (0, 50 and 75 µM) is incubated with PTP1B (0.3 µM) in reaction buffer (50 mM HEPES, pH7.0, 1 mM EDTA, and 100 mM NaCl) for 10 min and the reactions are initiated by different concentrations of pNPP (0.5–10 mM). The inhibition type is determined using double-reciprocal plots. In determination of the selectivity of Rut against PTPs, the result is referred as no inhibition when 100 µM Rut inhibits no enzyme activity. The same reaction systems are designed for all PTPs including PTP1B.

TC-PTP = target: T2, TC-PTP (Homo sapiens, UniProt P17706); experiment: PTP enzyme inhibition assay (pNPP substrate); type: biochemical; conditions: PTPs 0.3 µM, pNPP 5 mM, 25°C; NI: No inhibition at 100 µM
T2 construct: pGEX4T-1-TC-PTP1–288; GST (N); made in house; host or cells: E. coli BL21 (DE3)
T2 sequence (P17706 1-288): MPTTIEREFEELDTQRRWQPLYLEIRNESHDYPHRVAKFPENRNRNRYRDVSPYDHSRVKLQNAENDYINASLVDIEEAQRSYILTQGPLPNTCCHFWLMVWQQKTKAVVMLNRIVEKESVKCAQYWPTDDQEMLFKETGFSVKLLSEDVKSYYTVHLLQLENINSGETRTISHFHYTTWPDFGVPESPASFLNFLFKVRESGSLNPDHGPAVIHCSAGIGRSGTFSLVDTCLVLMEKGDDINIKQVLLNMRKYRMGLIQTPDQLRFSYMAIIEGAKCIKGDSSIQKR
Protocol: as §1

CD45 = target: T3, CD45 (Homo sapiens, UniProt P08575); experiment: PTP enzyme inhibition assay (pNPP substrate); type: biochemical; conditions: PTPs 0.3 µM, pNPP 5 mM, 25°C; NI: No inhibition at 100 µM
T3 construct: pGEX2T-CD45_560–1256; GST (N); made in house; host or cells: E. coli BL21 (DE3)
T3 sequence (P08575 610-1306 limits assumed): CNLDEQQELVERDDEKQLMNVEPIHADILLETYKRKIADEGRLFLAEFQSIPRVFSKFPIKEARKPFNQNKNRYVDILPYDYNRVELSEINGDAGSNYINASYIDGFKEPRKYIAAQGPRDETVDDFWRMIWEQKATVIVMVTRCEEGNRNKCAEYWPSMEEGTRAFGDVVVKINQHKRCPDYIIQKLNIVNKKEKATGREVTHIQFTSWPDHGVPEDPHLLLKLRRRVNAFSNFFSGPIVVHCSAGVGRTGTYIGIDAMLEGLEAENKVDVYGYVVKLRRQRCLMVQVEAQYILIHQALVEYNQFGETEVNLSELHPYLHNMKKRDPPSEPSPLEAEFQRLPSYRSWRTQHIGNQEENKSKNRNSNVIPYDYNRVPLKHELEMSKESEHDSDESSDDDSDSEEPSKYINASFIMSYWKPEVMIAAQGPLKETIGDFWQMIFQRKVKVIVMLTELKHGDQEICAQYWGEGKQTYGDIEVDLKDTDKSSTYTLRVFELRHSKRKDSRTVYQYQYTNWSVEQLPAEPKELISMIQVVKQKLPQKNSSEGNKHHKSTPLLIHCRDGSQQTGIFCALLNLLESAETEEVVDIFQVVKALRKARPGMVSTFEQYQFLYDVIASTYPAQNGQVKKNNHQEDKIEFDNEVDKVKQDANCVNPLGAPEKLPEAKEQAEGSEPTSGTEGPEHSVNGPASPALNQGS
Protocol: as §1

PTP1B = target: T4, PTP1B (Homo sapiens, UniProt P18031); experiment: PTP enzyme inhibition assay (pNPP substrate); type: biochemical; conditions: PTPs 0.3 µM, pNPP 5 mM, 25°C; NI: No inhibition at 100 µM
T4 construct: pGEX4T-1-PTP1B1–321; GST (N); made in house; host or cells: E. coli BL21 (DE3)
T4 sequence (P18031 1-321): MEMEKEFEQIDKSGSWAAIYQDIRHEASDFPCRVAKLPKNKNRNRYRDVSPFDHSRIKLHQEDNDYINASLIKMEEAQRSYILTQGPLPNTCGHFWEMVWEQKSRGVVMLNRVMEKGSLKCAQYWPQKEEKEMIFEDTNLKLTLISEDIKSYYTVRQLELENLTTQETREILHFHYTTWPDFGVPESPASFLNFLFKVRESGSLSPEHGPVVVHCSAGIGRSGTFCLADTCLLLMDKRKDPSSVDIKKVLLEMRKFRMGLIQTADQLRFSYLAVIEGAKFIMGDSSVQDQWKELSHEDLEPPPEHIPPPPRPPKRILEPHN
Protocol: as §1

LAR = target: T5, LAR (Homo sapiens, UniProt P10586); experiment: PTP enzyme inhibition assay (pNPP substrate); type: biochemical; conditions: PTPs 0.3 µM, pNPP 5 mM, 25°C; NI: No inhibition at 100 µM; read-out: IC50 LAR
T5 construct: pGEX2T-LAR1282–1888; GST (N); made in house; host or cells: E. coli BL21 (DE3)
T5 sequence (P10586 1301-1907 limits assumed): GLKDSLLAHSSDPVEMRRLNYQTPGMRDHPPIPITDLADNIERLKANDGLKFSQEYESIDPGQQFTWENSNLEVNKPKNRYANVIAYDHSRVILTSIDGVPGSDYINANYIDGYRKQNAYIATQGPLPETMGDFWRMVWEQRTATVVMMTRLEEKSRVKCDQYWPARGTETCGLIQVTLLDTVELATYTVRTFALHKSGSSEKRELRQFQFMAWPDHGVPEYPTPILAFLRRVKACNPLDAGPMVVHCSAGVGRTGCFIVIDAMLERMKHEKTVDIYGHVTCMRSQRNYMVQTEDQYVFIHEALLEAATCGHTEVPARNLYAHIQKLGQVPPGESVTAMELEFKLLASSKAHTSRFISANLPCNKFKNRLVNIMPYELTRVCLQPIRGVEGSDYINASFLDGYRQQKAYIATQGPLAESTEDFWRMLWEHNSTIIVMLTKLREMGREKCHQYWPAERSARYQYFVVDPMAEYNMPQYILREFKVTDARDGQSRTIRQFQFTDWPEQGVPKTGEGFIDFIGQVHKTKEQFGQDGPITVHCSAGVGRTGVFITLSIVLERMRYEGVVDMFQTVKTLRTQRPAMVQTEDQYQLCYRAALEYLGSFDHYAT
Protocol: as §1

3T3-L1 adipocytes = experiment: 2-Deoxyglucose uptake in 3T3-L1 adipocytes; type: cell-based; conditions: insulin 17 nM; Rut 5–25 µM, C2 10 µM
Protocol: 3T3-L1 adipocytes are fully differentiated (the 10th day after MDI stimulation) and seeded into 24-well plate. After incubation with compounds in serum-free medium containing 0.5% BSA for 8 hours, medium is changed to Krebs buffer containing […] insulin and incubated for 30 minutes. In the last 5 minutes, cells are incubated with 2-[^3H]-deoxy-D-glucose. The glucose uptake is stopped by ice-cold PBS, and the cells are then lysed with 0.1% Triton. Finally the radioactivity is calculated by a scintillation counter. Cytochalasin B is used to measure nonspecific uptake, and the value is subtracted from all the data. Radioactivity is normalized by total protein concentration that is measured by BCA kit.

[1] = target: T6, Peroxisome proliferator-activated receptor γ ligand-binding domain PPARγ-LBD(202-477), His-tagged, purified (human, UniProt P37231-2 202-477); experiment: SPR; Biacore 3000; purified SRC1(613-773) immobilised on a CM5 chip by amine coupling; different concentrations of PPARγ-LBD or RXRα-LBD injected at 20 µL/min for 60 s, dissociation 120 s; running buffer 10 mM HEPES, 150 mM NaCl, 3 mM EDTA, 0.005% P20, pH 7.4; also 1 µM LBD pre-incubated for 1 h with Rut (16.8-100 µM); conditions: both partners purified
T6 construct: also called hPPARγ-LBD; source: E. coli BL21 (DE3), purified (His-tag purification, Novagen instructions)
T6 sequence (looked up): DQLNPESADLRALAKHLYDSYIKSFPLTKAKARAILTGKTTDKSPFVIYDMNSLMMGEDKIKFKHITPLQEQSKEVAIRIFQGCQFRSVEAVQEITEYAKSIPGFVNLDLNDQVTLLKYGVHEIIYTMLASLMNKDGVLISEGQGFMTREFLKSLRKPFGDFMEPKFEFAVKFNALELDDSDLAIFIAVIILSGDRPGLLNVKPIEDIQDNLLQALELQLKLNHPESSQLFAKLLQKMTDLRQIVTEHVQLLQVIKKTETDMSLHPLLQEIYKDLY

[2] = target: T7, Retinoid X receptor α ligand-binding domain (RXRα-LBD), His-tagged, purified (human, UniProt P19793 229-458); experiment: as above; conditions: both partners purified
T7 construct: also called hRXRα-LBD; source: E. coli BL21 (DE3), purified (His-tag purification, Novagen instructions)
T7 sequence: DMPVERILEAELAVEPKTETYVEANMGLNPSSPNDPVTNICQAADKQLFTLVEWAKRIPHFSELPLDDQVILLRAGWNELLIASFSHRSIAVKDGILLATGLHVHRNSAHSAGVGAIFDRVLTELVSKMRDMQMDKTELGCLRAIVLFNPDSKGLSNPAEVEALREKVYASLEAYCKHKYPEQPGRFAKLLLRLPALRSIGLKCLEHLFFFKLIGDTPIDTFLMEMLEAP

COC[C@H]1OC(=O)c2coc3c2[C@@]1(C)C1=C(C3=O)[C@@H]2CCC(=O)[C@@]2(C)C[C@H]1OC(C)=O [wortmannin, reference compound]
effect on Rut or insulin-stimulated GLUT4 translocation (CHO-K1/GLUT4 cells; wortmannin 1 µM, Rut 20 µM or insulin 170 nM): completely inhibits

insulin: insulin used as stimulus in cellular GLUT4 translocation assay
insulin-stimulated GLUT4 translocation over the basal (CHO-K1/GLUT4 cells; IN Cell 1000 analyzer based system): around 1.5 fold
EC50 (CHO-K1/GLUT4 cells; insulin 5 min): 100 nM

pervanadate [reference compound]
EC50 (CHO-K1/GLUT4 cells; pervanadate 30 min): 51000 nM
IC50 (PTPα): 59 nM
IC50 (TC-PTP): 36 nM
IC50 (CD45): 6 nM
IC50 (PTP1B): 15 nM
IC50 (LAR): 26 nM
insulin-induced glucose uptake (3T3-L1 adipocytes): increase the insulin-stimulated glucose uptake

B1: Steroid receptor coinducer-1 fragment SRC1(613-773), His-tagged, purified (domain or fragment, human, UniProt Q15788 613-773, looked up)
chain: LHNNDRLSDGDSKYSQTSHKLVQLLTTTAEQQLRHADIDTSCKDVLSCTGTSNSASANSSGGSCPSSHSSLTERHKILHRLLQEGSPSDITTLSVEPDKKDSASTSVSVTGQVQGNSSIKLELDASKKKESKDHQLLRYLLDKDEKDLRSTPNLSLDDVKV
notes: plasmid pET15b-SRC1(613-773); Human cDNA is stated as template for the two-hybrid SRC1(613-773) clone; source: E. coli BL21 (DE3), purified (His-tag purification, Novagen instructions)
binding result [1]: binds
Kd [2]: 1160 nM
